The text below walks through data of US7714023B2, “Treatment or prophylaxis of migraine or headache disorders using citalopram, escitalopram or citalopram metabolites” (priority 2004, dated 2010).

In series [1] the test system is DA uptake. The series can be described thus: DA uptake into rat corpora striatum synaptosomes. Format: biochemical.
Series [2] concerns NE uptake. Description: NE uptake, rat hypothalamus synaptosomes. The class given is biochemical.
In series [3] the target is T1, NE transporter (Rattus norvegicus, UniProt Q63380).
T1 construct: Rat cerebral cortex; from tissue; host or cells: rat cerebral cortex
T1 sequence (Q63380 1-617): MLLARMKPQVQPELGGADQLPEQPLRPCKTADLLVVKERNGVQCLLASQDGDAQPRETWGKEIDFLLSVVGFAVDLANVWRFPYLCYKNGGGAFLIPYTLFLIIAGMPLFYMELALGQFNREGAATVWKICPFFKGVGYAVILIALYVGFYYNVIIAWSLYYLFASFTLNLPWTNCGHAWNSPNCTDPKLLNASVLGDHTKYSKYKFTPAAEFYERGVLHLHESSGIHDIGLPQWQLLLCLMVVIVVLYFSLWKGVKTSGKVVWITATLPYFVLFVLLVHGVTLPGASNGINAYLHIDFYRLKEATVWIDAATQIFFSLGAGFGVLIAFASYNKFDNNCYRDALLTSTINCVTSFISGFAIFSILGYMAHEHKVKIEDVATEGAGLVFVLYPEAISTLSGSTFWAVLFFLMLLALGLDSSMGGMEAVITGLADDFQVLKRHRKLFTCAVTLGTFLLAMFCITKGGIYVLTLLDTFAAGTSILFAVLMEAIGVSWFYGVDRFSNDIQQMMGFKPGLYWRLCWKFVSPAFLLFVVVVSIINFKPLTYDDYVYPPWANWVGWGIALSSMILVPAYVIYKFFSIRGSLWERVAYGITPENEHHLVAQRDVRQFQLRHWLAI
The series can be described thus: NE transporter binding, rat cerebral cortex, [3H]nisoxetine. The following applies: Table 2, ten concentrations; read-out: Transporter and Muscarinic Receptor Binding IC50 NE.

For series [4], the system named is cytochrome P450 enzymes (P450 4A, P4502C19, P450 2D6, P4501A2, P450 2C9, P450 2E1). As to conditions: in vitro; not by more than the stated degree; cited from earlier work.
Series [5] concerns receptors for acetylcholine, histamine, norepinephrine, dopamine; monoamine oxidase; dopamine and norepinephrine reuptake sites. The following applies: Willets, 1999; cited from earlier work.
The target in series [6] is T2, DA transporter (h) (Homo sapiens, UniProt Q01959).
T2 construct: expressed in transfected cells; host or cells: CHO cells
T2 sequence (Q01959 whole entry): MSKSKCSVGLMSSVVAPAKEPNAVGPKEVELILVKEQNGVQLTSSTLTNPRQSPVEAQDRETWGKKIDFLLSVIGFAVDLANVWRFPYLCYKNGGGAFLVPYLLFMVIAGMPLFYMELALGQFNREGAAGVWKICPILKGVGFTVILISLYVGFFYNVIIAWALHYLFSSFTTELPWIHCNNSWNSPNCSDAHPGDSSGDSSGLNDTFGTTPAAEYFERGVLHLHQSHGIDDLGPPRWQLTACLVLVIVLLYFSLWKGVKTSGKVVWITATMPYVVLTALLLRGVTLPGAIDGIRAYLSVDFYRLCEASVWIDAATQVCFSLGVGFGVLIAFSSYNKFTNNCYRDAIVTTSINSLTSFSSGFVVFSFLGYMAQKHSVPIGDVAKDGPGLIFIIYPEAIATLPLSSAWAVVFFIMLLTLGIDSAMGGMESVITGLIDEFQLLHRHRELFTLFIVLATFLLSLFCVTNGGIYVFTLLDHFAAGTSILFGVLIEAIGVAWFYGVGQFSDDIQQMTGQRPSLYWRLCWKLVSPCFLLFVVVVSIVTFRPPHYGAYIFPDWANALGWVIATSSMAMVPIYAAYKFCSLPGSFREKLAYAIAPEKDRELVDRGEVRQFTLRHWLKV
The series can be described thus: DA transporter (h) binding, [3H]GBR12935.

In series [7] the target is T3, NE transporter (h) (Homo sapiens, UniProt P23975).
T3 construct: expressed in transfected cells; host or cells: MDCK cells
T3 sequence (P23975 whole entry): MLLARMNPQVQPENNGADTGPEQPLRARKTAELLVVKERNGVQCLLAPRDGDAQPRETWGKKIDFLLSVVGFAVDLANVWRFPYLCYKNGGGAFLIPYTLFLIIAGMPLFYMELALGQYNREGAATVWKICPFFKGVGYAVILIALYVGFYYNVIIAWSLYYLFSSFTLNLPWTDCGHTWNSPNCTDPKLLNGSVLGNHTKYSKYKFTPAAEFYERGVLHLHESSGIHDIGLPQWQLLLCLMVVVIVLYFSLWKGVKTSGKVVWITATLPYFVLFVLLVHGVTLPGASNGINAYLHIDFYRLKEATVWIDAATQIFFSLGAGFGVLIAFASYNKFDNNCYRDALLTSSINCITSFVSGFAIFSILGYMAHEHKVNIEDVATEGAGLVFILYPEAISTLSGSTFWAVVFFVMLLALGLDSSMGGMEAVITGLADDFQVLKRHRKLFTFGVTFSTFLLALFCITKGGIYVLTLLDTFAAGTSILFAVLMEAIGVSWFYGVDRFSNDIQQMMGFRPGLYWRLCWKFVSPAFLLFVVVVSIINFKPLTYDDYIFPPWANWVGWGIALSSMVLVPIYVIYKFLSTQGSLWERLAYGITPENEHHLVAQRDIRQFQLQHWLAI
The series can be described thus: NE transporter (h) binding, [3H]nisoxetine.

In series [8] the test system is 5-HT uptake. The series can be described thus: 5-HT uptake into rat brain synaptosomes. The class given is biochemical.
In series [9] the target is T4, 5-HT transporter (h) (Homo sapiens, UniProt P31645).
T4 construct: expressed in transfected cells; host or cells: HEK 293 cells
T4 sequence (P31645 whole entry): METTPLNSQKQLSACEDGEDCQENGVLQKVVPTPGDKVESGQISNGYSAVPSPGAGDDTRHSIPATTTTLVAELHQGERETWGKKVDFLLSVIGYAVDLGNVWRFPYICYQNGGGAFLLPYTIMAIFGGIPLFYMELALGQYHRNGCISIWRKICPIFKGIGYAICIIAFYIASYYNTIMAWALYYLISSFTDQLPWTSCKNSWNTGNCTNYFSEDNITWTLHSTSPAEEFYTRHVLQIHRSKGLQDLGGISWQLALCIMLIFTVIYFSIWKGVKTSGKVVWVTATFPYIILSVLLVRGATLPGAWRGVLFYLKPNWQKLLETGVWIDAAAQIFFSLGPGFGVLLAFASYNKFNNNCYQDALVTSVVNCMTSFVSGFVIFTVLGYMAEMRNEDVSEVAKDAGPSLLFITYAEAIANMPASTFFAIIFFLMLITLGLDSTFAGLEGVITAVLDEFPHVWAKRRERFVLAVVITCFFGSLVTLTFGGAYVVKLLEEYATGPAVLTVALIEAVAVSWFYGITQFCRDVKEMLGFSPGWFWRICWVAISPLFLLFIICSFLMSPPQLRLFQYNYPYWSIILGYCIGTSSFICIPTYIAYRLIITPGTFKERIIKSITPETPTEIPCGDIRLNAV
The class given is binding.

The target in series [10] is T5, 5-HT transporter (Rattus norvegicus, UniProt P31652).
T5 construct: Rat cerebral cortex; from tissue; host or cells: rat cerebral cortex
T5 sequence (P31652 whole entry): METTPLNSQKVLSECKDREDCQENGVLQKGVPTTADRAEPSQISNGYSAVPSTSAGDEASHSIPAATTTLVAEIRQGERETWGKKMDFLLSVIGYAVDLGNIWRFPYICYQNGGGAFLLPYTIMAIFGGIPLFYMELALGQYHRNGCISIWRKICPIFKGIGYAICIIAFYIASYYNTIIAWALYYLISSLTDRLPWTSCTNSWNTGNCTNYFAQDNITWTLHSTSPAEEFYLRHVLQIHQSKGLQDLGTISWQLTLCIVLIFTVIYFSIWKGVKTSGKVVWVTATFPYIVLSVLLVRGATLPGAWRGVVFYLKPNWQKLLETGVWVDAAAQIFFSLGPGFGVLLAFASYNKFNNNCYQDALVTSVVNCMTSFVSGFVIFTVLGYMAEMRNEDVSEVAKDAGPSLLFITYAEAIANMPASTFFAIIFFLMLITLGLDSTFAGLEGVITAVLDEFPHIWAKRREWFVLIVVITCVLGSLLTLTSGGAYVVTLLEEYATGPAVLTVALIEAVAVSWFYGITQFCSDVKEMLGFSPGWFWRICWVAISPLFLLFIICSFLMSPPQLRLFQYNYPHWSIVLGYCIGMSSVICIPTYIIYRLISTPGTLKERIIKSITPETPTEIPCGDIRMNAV
The series can be described thus: 5-HT transporter binding, rat cerebral cortex, [3H]paroxetine. As to conditions: Table 2, ten concentrations; read-out: Transporter and Muscarinic Receptor Binding IC50 5-HT rat.

Series [11] addresses T6, DA transporter (Rattus norvegicus, UniProt P23977).
T6 construct: Rat striatum; from tissue; host or cells: rat striatum
The series can be described thus: DA transporter binding, rat striatum, [3H]GBR12935. As to conditions: Table 2, ten concentrations; read-out: Transporter and Muscarinic Receptor Binding IC50 DA.

The mark [12] stands for this setting: Table 3, rat brain synaptosomes, read-out: Monoamine Uptake IC50 DA.
Where [13] appears, read: Table 3, rat brain synaptosomes, read-out: Monoamine Uptake IC50 NE.
The mark [14] stands for this setting: Table 1, rat brain synaptosomes, read-out: Functional Uptake IC50 DA.
[15] abbreviates: Table 1, rat brain synaptosomes, read-out: Functional Uptake IC50 NE.
Setting [16] is: Table 1, racemic forms, duplicate, read-out: Transporter Binding IC50 DA.
Setting [17] is: Table 1, racemic forms, duplicate, read-out: Transporter Binding IC50 NE.
Setting [18] is: Table 1, rat brain synaptosomes, read-out: Functional Uptake IC50 5-HT.
The mark [19] stands for this setting: Table 3, human recombinant CHO cells, [3H]-GBR 12935, read-out: Human Transporter Binding IC50 DA.
Setting [20] is: Table 3, human recombinant MDCK cells, [3H]-nisoxetine, read-out: Human Transporter Binding IC50 NE.
The mark [21] stands for this setting: Table 3, rat brain synaptosomes, read-out: Monoamine Uptake IC50 5-HT.
Setting [22] is: Table 2, ten concentrations, read-out: Transporter and Muscarinic Receptor Binding IC50 5-HT human.

“And” between values parts separate entries of the source, which are not always exact repeats. Equal values may be shown once. Read-outs that look alike come from different tables or passages of the source.

T6 sequence (P23977 whole entry): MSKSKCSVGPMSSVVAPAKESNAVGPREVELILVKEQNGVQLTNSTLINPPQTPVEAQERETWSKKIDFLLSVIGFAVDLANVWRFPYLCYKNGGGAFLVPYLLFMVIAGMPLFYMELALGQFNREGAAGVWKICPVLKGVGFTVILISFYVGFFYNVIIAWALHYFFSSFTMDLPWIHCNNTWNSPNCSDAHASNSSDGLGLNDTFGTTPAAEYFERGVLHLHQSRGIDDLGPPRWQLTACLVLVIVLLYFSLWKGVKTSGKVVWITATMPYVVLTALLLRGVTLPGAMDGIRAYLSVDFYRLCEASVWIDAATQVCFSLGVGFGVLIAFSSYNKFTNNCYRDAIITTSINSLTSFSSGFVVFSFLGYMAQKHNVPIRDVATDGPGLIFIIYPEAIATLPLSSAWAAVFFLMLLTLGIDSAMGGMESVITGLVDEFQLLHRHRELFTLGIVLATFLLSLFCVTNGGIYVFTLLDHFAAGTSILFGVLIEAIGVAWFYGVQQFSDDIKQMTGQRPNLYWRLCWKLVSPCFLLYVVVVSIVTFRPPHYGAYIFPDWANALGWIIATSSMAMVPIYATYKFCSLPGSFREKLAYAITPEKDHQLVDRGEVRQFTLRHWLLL

By IC50 is commonly meant the midpoint of a concentration-inhibition curve. Consider `CN(C)CCCC1(c2ccc(F)cc2)OCc2cc(C#N)ccc21` (racemic) [Citalopram HBr (racemic), reference compound], for which the IC50 is 13 µM in [1] (setting [12]), 4.9 µM in series [2] (setting [13]) and 4.74 µM in [3].
Consider `CN(C)CCCC1(c2ccc(F)cc2)OCc2cc(C#N)ccc21` (racemic) [Racemic citalopram, (±)-1-(3-dimethylaminopropyl)-1-(4-fluorophenyl)-1,3-dihydroisobenzofuran-5-carbonitrile, reference compound], for which the IC50 came to 17 µM in series [1] (setting [14]) and 3.6 µM in [2] (setting [15]). The “inhibition of the activity of cytochrome P450 enzymes” value in [4] is “mild degree”. Also, the “affinity for receptors for various neurotransmitters, enzymes and other reuptake sites” value in series [5] is listed as “negligible affinity”.
As to `CNCCCC1(c2ccc(F)cc2)OCc2cc(C#N)ccc21` (racemic) [Racemic desmethylcitalopram], the concentration for half-maximal inhibition (IC50) in series [6] (setting [16]) stood at 3.73 µM; in series [7] (setting [17]), 15.5 µM; in series [8] (setting [18]), 0.013 µM; in series [1] (setting [14]), 38 µM; in series [2] (setting [15]), 1.2 µM. Moreover, in series [4], the “inhibition of the activity of cytochrome P450 enzymes” value is on record as “mild degree”.
For `N#Cc1ccc2c(c1)COC2(CCCN)c1ccc(F)cc1` (racemic) [Racemic didesmethylcitalopram, 3-5-Cyano-1-(4-fluorophenyl)-1,3-dihydro-isobenzofuran-1-yl-propyl amine], the IC50 worked out at 0.085 µM in [9] (Table 1, racemic forms, duplicate, read-out: Transporter Binding IC50 5-HT); 13.2 µM in [6] (setting [16]); 21.2 µM in [7] (setting [17]); 0.038 µM in series [8] (setting [18]); 8.9 µM in [1] (setting [14]); 1.6 µM in [2] (setting [15]).
`CNCCC[C@]1(c2ccc(F)cc2)OCc2cc(C#N)ccc21` [(R)(−)-Desmethylcitalopram]: the IC50 in series [6] (setting [19]) came to 37.6 µM; in series [7] (setting [20]), 0.815 µM; in series [8] (setting [21]), 0.11 µM; in series [1] (setting [12]) it was 9.4 µM; in [2] (setting [13]), 1.7 µM; in [10], 0.011 µM. Also, the results for the IC50 in series [11] and in series [3] were 58 µM and 0.92 µM, respectively.
With `N#Cc1ccc2c(c1)CO[C@]2(CCCN)c1ccc(F)cc1` [(R)(−)-Didesmethylcitalopram], the IC50 in series [9] (setting [22]) stood at 0.014 µM; in [6] (setting [19]), 38.9 µM; in series [7] (setting [20]), 5.52 µM; in [8] (setting [21]), 0.13 µM; in series [1] (setting [12]), 27 µM; in series [2] (setting [13]), 1.3 µM. Besides, the IC50 in [10] was determined as 0.027 µM; in series [11], 14.1 µM; in series [3], 3.62 µM.
For `CNCCC[C@@]1(c2ccc(F)cc2)OCc2cc(C#N)ccc21` [(S)(+)-Desmethylcitalopram], the IC50 in [6] (setting [19]) was determined as 27.7 µM; in [7] (setting [20]) it was 10.3 µM; in series [8] (setting [21]), 0.0058 µM; in [1] (setting [12]), 7.6 µM; in series [2] (setting [13]), 4.1 µM; in series [10] it was 0.0013 µM. Besides, the IC50 in series [11] is 79.5 µM; in [3], 11.5 µM.
With `N#Cc1ccc2c(c1)CO[C@@]2(CCCN)c1ccc(F)cc1` [(S)(+)-Didesmethylcitalopram], the “fold higher affinity than its antipode, human 5-HT transporter” value in series [9] is 16 fold. For the same compound, the IC50 stood at 0.219 µM in [9] (setting [22]); 54.7 µM in series [6] (setting [19]); 24.2 µM in series [7] (setting [20]); 0.18 µM in [8] (setting [21]); 11 µM in series [1] (setting [12]); 3.3 µM in [2] (setting [13]). Moreover, the half-inhibitory concentration (IC50) in series [10] was 0.019 µM; in [11], 71.1 µM; in series [3], 20.1 µM.
For the compound `CN(C)CCCN1c2ccccc2CCc2ccccc21` [Imipramine, reference compound], the values for the IC50 in series [8] (setting [18]) and in [8] (setting [21]) were […] and […], respectively.
In the case of `CNCCCC1c2ccccc2C=Cc2ccccc21` [Protriptyline, reference compound], the IC50 in [6] (setting [16]) was 0.0067 µM and 0.015 µM; in [1] (setting [14]), 0.001 µM; in [2] (setting [13]), 0.0023 µM.
